Measured values reported in ChEMBL document CHEMBL1157695, “Identification of a novel ligand binding motif in the transthyretin channel” (Bioorg Med Chem, 2010).
pKd: −log10 of the molar value. Active and inactive are the calls of the source. No cut-off for these calls is given here.

Experiments:
[1] = target: Transthyretin (Homo sapiens) (UniProt P02766); assay: Inhibition of wild type human TTR aggregation expressed in Escherichia coli assessed as fibril formation at 20 uM after 72 hrs relative by spectrofluorimetry; design: scale not given: the % may be the effect or the level left
Transthyretin = Transthyretin (Homo sapiens, UniProt P02766, V50M); assay: Binding affinity to human recombinant TTR V30M mutant denominated hormone binding site expressed in Escherichia coli by FRET analysis
[2] = Binding affinity to human recombinant TTR T119M mutant denominated hormone binding site expressed in Escherichia coli by FRET analysis
[3] = target: Transthyretin (Homo sapiens) (UniProt P02766); assay: Binding affinity to wild type human TTR denominated hormone binding site expressed in Escherichia coli at 100 nM by fluorescence anisotropy
[4] = system: Transthyretin (Homo sapiens), P02766 [V50M]; assay: Binding affinity to human recombinant TTR V30M mutant denominated hormone binding site expressed in Escherichia coli at 100 nM by fluorescence anisotropy
Homo sapiens [5] = species: Homo sapiens; assay: Binding affinity to human recombinant TTR T119M mutant denominated hormone binding site expressed in Escherichia coli at 100 nM by fluorescence anisotropy
[6] = Binding affinity to human recombinant TTR T119M mutant denominated hormone binding site expressed in Escherichia coli assessed as dissociation constant for first ligand binding event by isothermal direct titrimetric assay
[7] = Binding affinity to human recombinant TTR T119M mutant denominated hormone binding site expressed in Escherichia coli assessed as dissociation constant for second ligand binding event by isothermal direct titrimetric assay
[8] = Binding affinity to human recombinant TTR T119M mutant denominated hormone binding site expressed in Escherichia coli by isothermal direct titrimetric assay
[9] = target: Transthyretin (Homo sapiens) (UniProt P02766); assay: Binding affinity to wild type human TTR denominated hormone binding site expressed in Escherichia coli at 10 uM by fluorescence anisotropy
[10] = system: Transthyretin (Homo sapiens), P02766 [V50M]; assay: Binding affinity to human recombinant TTR V30M mutant denominated hormone binding site expressed in Escherichia coli at 10 uM by fluorescence anisotropy
Homo sapiens [11] = species: Homo sapiens; assay: Binding affinity to human recombinant TTR T119M mutant denominated hormone binding site expressed in Escherichia coli at 10 uM by fluorescence anisotropy

Activity [1] [%] | pKd (Transthyretin) | Activity [3] | Activity [4] | Activity (Homo sapiens [5]) | Activity [9] | Activity [10] | Activity (Homo sapiens [11]) | Compound | pKd [2] | pKd [6] | pKd [7] | pKd [8]
33 | – | – | – | – | – | – | – | O=C(O)Cc1ccccc1Nc1c(Cl)cccc1Cl | – | – | – | –
100 | 4.07 | Active | Active | Active | – | – | – | Nc1cccc2c(S(=O)(=O)O)cccc12 | 4.03 | – | – | –
44 | – | – | – | – | Active | Active | Active | O=S(=O)(O)c1cccc2cccc(Nc3ccccc3)c12 | – | 5.49 | 5.17 | 5.35
